Experimental data taken from publication PMC9682524, “Investigation of the Interaction between Human Serum Albumin and Branched Short-Chain Perfluoroalkyl Compounds” (Chemical Research in Toxicology, 2022).
Values joined by “and” are separate entries in the source; they are usually repeats but may differ in a detail not shown here. Equal values may be shown once. Read-outs that look alike come from different tables or passages of the source.

Key:
[1] = target: T1, human serum albumin (hSA) (Homo sapiens, UniProt P02768); test: Competitive ITC with hSA saturated with ibuprofen or warfarin; type: binding; conditions: for titration profile to hSA saturated with War: 200 μM War; for titration profile to hSA saturated with War / titration profile to Ibu-saturated hSA: PFAS 4 mM titrant; for titration profile to Ibu-saturated hSA: 250 μM Ibu; for preferably occupied hSA binding sites: concluded from stoichiometry and competition with Ibu
T1 construct: purchased Albumin Bioscience (Huntsville, AL, USA)
Protocol: (§1) ITC experiments were performed using a Microcal PEAQ-ITC instrument (Malvern Panalytical, Malvern, UK). Both dhSA (110 μM) and ligands (HPFO-DA, C6O4, PFHxA, Ibu, and War, 4 mM solutions) were dissolved in 50 mM NaPi, 100 mM NaCl, pH 7.4. Only in the case of War, 2.5% v/v DMSO was added to the buffer to improve its solubility. All working solutions were properly degassed. Titrations of dhSA with ligands were carried out at different temperatures (298 and 310 K). In each experiment, an initial 0.4 μL injection (excluded from subsequent data analysis) was followed by 25 independent injections of 1.5 μL with a stirring rate of 750 rpm to ensure rapid mixing. A 120 s interval between injections was applied to guarantee the equilibrium at each titration point. Blank experiments (ligands against buffer) were carried out for each ligand and subtracted to corresponding titrations in order to screen dilution heat contributions. Competition experiments were conducted by adding saturating concentrations of albumin-binding drugs (either 250 μM Ibu or 200 μM War) to dhSA in the measure cell and titrating each PFAS (4 mM) with the aforementioned instrumental parameters. Data were analyzed using the MicroCal PEAQ-ITC Evaluation software (Malvern Panalytical, Malvern, UK). Integrated heat signals were fitted to “one set of sites” (C6O4, PFHxA), “two sets of sites” (PFOA), or “sequential” (HPFO-DA) binding models. Values for the binding affinity constant (KA = 1/KD) and enthalpy change (ΔH), together with the stoichiometry of each PFAS-dhSA reaction, were obtained from curve fitting. Free energy and the entropy change (ΔS) were calculated from the Gibbs free energy (ΔG) relationships: ΔG = ΔH – TΔS = −RT ln(KA).
These include ibuprofen (Ibu) and warfarin (War), two well-characterized molecules known to share the same fatty acid-binding sites (FA4 and FA6 for Ibu, FA7 for War) with long-chain PFASs (Figure 2a).[45] Again, the short-chain perfluoroalkyl compound PFHxA was included as the control. […] The results are consistent with those previously reported that identified the ibuprofen-binding pocket as a preferable cavity to lodge polyfluoroalkyl compounds.[45]

[2] = target: T1, human serum albumin (hSA); test: Isothermal titration calorimetry (ITC) of PFAS binding to defatted hSA
Protocol: as §1

[3] = target: T1, human serum albumin (hSA); test: Crystal structure of hSA in complex with HPFO-DA and Myr (PDB 7Z57); type: binding; conditions: ternary complex hSA-HPFO-DA-Myr, 1:20:5 molar ratio
Protocol: Crystallization trials of dhSA in complex with HPFO-DA, C6O4 and sodium myristate (Myr) were carried out at 285 K in an MRC maxi 48-well crystallization plate (Hampton Research, Aliso Viejo, CA, USA) using the sitting-drop vapor-diffusion method and the Morpheus MD1–46 protein crystallization screen kit (Molecular Dimensions Ltd., Catcliffe, UK). Droplets of 1.6 μL volume (0.8 μL of protein complex and 0.8 μL of reservoir solution) were set up using an Oryx 8 crystallization robot (Douglas Instruments Ltd., Catcliffe, UK) and equilibrated against 120 μL reservoir solution. In all the cases, best crystals were obtained by streak- or micro-seeding and left for 5–7 days. Crystals of dhSA (1 mM) incubated with a 20-fold molar excess of HPFO-DA (20 mM) and a fivefold molar excess of Myr (5 mM) were obtained using the following precipitant agents: 50 mM bicine, 50 mM Trizma base, 30 mM sodium fluoride, 30 mM sodium bromide, 30 mM sodium iodide, 12.5% v/v MPD, 12.5% w/v PEG 1000, and 12.5% w/v PEG 3350 pH 8.5. […]
The structure was solved by molecular replacement with software PHASER[49] using as a template the model 7AAI.[45] […] Intramolecular and intermolecular hydrogen bond interactions were analyzed by PROFUNC,[53] […]

[4] = environmentally exposed human populations; cited from earlier work
[5] = 310 K, sequential binding, first binding event
[6] = 310 K, sequential binding, second binding event
[7] = 298 K, two sets of sites, high-affinity sites
[8] = 298 K, two sets of sites, low-affinity sites
[9] = 310 K, two sets of sites, high-affinity sites
[10] = 310 K, two sets of sites, low-affinity sites

T1 sequence (P02768 25-609): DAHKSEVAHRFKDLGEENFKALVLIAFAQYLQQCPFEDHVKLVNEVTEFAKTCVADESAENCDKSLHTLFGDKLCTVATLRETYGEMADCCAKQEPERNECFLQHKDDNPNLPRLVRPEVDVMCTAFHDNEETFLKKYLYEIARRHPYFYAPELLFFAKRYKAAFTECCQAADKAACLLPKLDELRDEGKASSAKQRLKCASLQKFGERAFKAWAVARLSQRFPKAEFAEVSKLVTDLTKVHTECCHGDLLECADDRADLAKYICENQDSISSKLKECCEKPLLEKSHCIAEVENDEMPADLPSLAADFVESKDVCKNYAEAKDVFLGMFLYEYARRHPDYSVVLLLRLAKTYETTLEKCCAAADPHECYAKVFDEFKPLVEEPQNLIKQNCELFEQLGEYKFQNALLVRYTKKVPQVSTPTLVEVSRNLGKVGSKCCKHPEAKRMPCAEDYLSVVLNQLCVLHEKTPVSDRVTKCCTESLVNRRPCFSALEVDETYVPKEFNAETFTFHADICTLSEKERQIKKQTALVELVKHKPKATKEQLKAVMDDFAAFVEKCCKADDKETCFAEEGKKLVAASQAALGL

| SMILES | titration profile to hSA saturated with War [1] | titration profile to Ibu-saturated hSA [1] | preferably occupied hSA binding sites [1] | n (stoichiometry) ([2]; 298 K, one set of sites) | ΔG ([2]; 298 K, one set of sites) | ΔH ([2]; 298 K, one set of sites) | n (stoichiometry) ([2]; 310 K, one set of sites) | ΔG ([2]; 310 K, one set of sites) | ΔH ([2]; 310 K, one set of sites) | –TΔS ([2]; 310 K, one set of sites) [kcal/mol] | Kd ([2]; KD, 298 K, one set of sites) [µM] | Kd ([2]; KD, 310 K, one set of sites) [µM] | number of distinct binding sites occupied in crystal structure [3] | average half-life for serum elimination [4] | also measured |
| --- | --- | --- | --- | --- | --- | --- | --- | --- | --- | --- | --- | --- | --- | --- | --- |
| O=C(O)C(F)(F)OC1(F)OC(F)(F)OC1(F)OC(F)(F)F (stereo not drawn) [C6O4, perfluoro ([5-methoxy-1,3-dioxolan-4-yl]oxy) acetic acid] | comparable to that of hSA in the absence of competitive drug | nearly saturated flat curve | FA4 and/or FA6 sites | 1.6 ± 0.2 | –32.10 kJ/mol | –21.4 ± 1.4 kJ/mol | 1.5 ± 0.3 | –31.70 kJ/mol | –25.8 ± 4.2 kJ/mol | 0.406 | 2.4 ± 0.1 | 5.4 ± 2.1 |  |  | –TΔS ([2]; 298 K, one set of sites): –10.7 kJ/mol |
| O=C(O)C(F)(OC(F)(F)C(F)(F)C(F)(F)F)C(F)(F)F (stereo not drawn) [HPFO-DA, 2,3,3,3-tetrafluoro-2-(heptafluoropropoxy) propanoic acid] | comparable to that of hSA in the absence of competitive drug | nearly saturated flat curve | FA4 and/or FA6 sites |  |  |  |  |  |  |  |  |  | two |  | fold lower binding affinity (KD) compared to PFOA high-affinity sites ([2]; 298 K): ~47 fold; ΔH2 ([2]; 298 K, sequential binding, second binding event): 8.08 kcal/mol and 8.08 ± 0.454 kcal/mol; ΔH1 [2, 5]: –23.2 ± 3.4 kJ/mol; –TΔS1 [2, 5]: –6.54 kJ/mol; ΔH2 [2, 6]: 6.74 ± 0.669 kcal/mol; –TΔS2 [2, 6]: –55.4 kJ/mol; Kd ([2]; KD1, 298 K, sequential binding, first binding event): 19 ± 1.3 µM; Kd ([2]; KD1, 310 K, sequential binding, first binding event): 9.9 ± 2.3 µM; Kd ([2]; KD2, 310 K, sequential binding, second binding event): 27 ± 8.1 µM; Kd ([2]; human, pH 7.4, KD2, 298 K, sequential binding, second binding event): > 80 µM; Kd ([2]; read-out: KD2, 298 K, sequential binding, second binding event): 84.2 ± 14.6 µM |
| CCCCCCCCCCCCCC(=O)O [Myr, sodium myristate] |  |  |  |  |  |  |  |  |  |  |  |  | four |  |  |
| O=C(O)C(F)(F)C(F)(F)C(F)(F)C(F)(F)C(F)(F)F [PFHxA, Perfluorohexanoic acid] | comparable to that of hSA in the absence of competitive drug | nearly saturated flat curve | FA4 and/or FA6 sites | 1.02 ± 0.05 | –30.60 kJ/mol | –34.1 ± 7.40 kJ/mol | 1.03 ± 0.05 | –31.70 kJ/mol | –39.2 ± 2.00 kJ/mol | 1.84 | 4.5 ± 2.1 | 5.9 ± 0.7 |  |  |  |
| O=C(O)C(F)(F)C(F)(F)C(F)(F)C(F)(F)C(F)(F)C(F)(F)C(F)(F)F [PFOA, perfluorooctanoic acid] |  |  |  |  |  |  |  |  |  |  |  |  |  | 1–5 years | n (stoichiometry) [2, 7]: 0.89 ± 0.30; ΔG [2, 7]: –36.10 kJ/mol; –TΔS [2, 7]: –17.70 kJ/mol; ΔG [2, 8]: –26.60 kJ/mol; –TΔS [2, 8]: –28.2 kJ/mol; n (stoichiometry) [2, 9]: 0.95 ± 0.2; ΔG [2, 9]: –38.10 kJ/mol; ΔH [2, 9]: –16.5 ± 1.9 kJ/mol; –TΔS [2, 9]: –21.6 kJ/mol; n (stoichiometry) [2, 10]: 9.5 ± 0.20; ΔG [2, 10]: –29.10 kJ/mol; ΔH [2, 10]: –2.26 ± 0.75 kJ/mol; –TΔS [2, 10]: –31.30 kJ/mol; Kd ([2]; KD, 298 K, two sets of sites, low-affinity sites): 29.7 ± 1.7 µM; Kd ([2]; KD, 310 K, two sets of sites, low-affinity sites): 46 ± 2 µM; Kd ([2]; human, pH 7.4, KD, 298 K, two sets of sites, high-affinity sites): 0.4 ± 0.01 µM; Kd ([2]; human, pH 7.4, KD, 310 K, two sets of sites, high-affinity sites): 39.3 ± 0.4 µM |
| O=S(=O)(O)C(F)(F)C(F)(F)C(F)(F)C(F)(F)C(F)(F)C(F)(F)C(F)(F)C(F)(F)F [PFOS, perfluorooctanesulfonic acid] |  |  |  |  |  |  |  |  |  |  |  |  |  | 1–5 years |  |
